# Paper PMC5218480 (PLoS ONE, 2017)
# System: MV-4-11 cells
# Assay: Gene expression microarray analysis (Affymetrix PrimeView) and GSEA
# Format: cell-based, human
# Parameters: RFU PODN (11730768_x_at) / Fold change /veh PODN (11730768_x_at) / RFU LINC00158 (11744669_a_at) / Fold change /veh LINC00158 (11744669_a_at) / RFU DUSP10 (11751237_a_at) / Fold change /veh DUSP10 (11751237_a_at) / RFU ID3 (11757404_x_at) / Fold change /veh ID3 (11757404_x_at) / RFU PLEKHG5 (11737974_s_at) / Fold change /veh PLEKHG5 (11737974_s_at) / RFU LRRC4B (11730491_at) / Fold change /veh LRRC4B (11730491_at) / RFU GIMAP4 (11747438_a_at) / Fold change /veh GIMAP4 (11747438_a_at) / RFU KRT8 (11758183_x_at) / Fold change /veh KRT8 (11758183_x_at) / RFU CNN1 (11734310_a_at) / Fold change /veh CNN1 (11734310_a_at) / RFU VPS37D (11726825_at) / Fold change /veh VPS37D (11726825_at) / RFU C10orf10 (11716522_x_at) / Fold change /veh C10orf10 (11716522_x_at) / RFU KIR2DL2 /// KIR2DL4 /// KIR2DL5A /// KIR2DL5B /// KIR2DS1 /// KIR2DS2 /// KIR2DS3 /// KIR2DS4 /// KIR3DL3 /// KIR3DL3 /// KIR3DS1 (11738374_at) / Fold change /veh KIR2DL2 /// KIR2DL4 /// KIR2DL5A /// KIR2DL5B /// KIR2DS1 /// KIR2DS2 /// KIR2DS3 /// KIR2DS4 /// KIR3DL3 /// KIR3DL3 /// KIR3DS1 (11738374_at) / RFU C1QL1 (11718748_at) / Fold change /veh C1QL1 (11718748_at) / RFU TMPRSS4 (11747572_a_at) / Fold change /veh TMPRSS4 (11747572_a_at) / RFU HAMP (11756126_x_at) / Fold change /veh HAMP (11756126_x_at) / RFU RNFT2 (11725882_a_at) / Fold change /veh RNFT2 (11725882_a_at) / RFU NR4A2 (11747474_a_at) / Fold change /veh NR4A2 (11747474_a_at) / RFU ABCC12 (11746883_a_at) / Fold change /veh ABCC12 (11746883_a_at) / RFU TMEM136 (11760407_x_at) / Fold change /veh TMEM136 (11760407_x_at) / RFU CLDN22 /// WWC2 (11732394_at) / Fold change /veh CLDN22 /// WWC2 (11732394_at) / RFU HLA-DPB1 (11760878_x_at) / Fold change /veh HLA-DPB1 (11760878_x_at) / RFU SPINT1 (11716480_a_at) / Fold change /veh SPINT1 (11716480_a_at) / RFU GAP43 (11754022_s_at) / Fold change /veh GAP43 (11754022_s_at) / RFU A4GNT (11735810_at) / Fold change /veh A4GNT (11735810_at) / RFU PRB3 (11715151_x_at) / Fold change /veh PRB3 (11715151_x_at) / RFU TUBB4B (11761932_at) / Fold change /veh TUBB4B (11761932_at) / RFU CAPN14 (11732068_a_at) / Fold change /veh CAPN14 (11732068_a_at) / RFU TMCC2 (11721928_a_at) / Fold change /veh TMCC2 (11721928_a_at) / RFU IRGQ (11745062_a_at) / Fold change /veh IRGQ (11745062_a_at) / RFU FAM174B (11720279_a_at) / Fold change /veh FAM174B (11720279_a_at) / RFU TMPRSS4 (11748680_a_at) / Fold change /veh TMPRSS4 (11748680_a_at) / RFU FAM212B (11763350_a_at) / Fold change /veh FAM212B (11763350_a_at) / RFU PLEKHG5 (11743358_a_at) / Fold change /veh PLEKHG5 (11743358_a_at) / RFU ZSCAN30 (11745921_a_at) / Fold change /veh ZSCAN30 (11745921_a_at) / RFU CMKLR1 (11741424_a_at) / Fold change /veh CMKLR1 (11741424_a_at) / RFU LOC101060620 /// MAPK8IP1 (11723275_at) / Fold change /veh LOC101060620 /// MAPK8IP1 (11723275_at) / RFU SPTSSB (11747773_x_at) / Fold change /veh SPTSSB (11747773_x_at) / RFU PRSS12 (11739890_at) / Fold change /veh PRSS12 (11739890_at) / RFU BIN1 (11741810_x_at) / Fold change /veh BIN1 (11741810_x_at) / RFU WNT11 (11732464_a_at) / Fold change /veh WNT11 (11732464_a_at) / RFU C10orf10 (11716521_a_at) / Fold change /veh C10orf10 (11716521_a_at) / RFU C5orf56 (11738089_at) / Fold change /veh C5orf56 (11738089_at) / RFU CYB561 (11721691_x_at) / Fold change /veh CYB561 (11721691_x_at) / RFU ANKRD19P (11752326_a_at) / Fold change /veh ANKRD19P (11752326_a_at) / RFU OR2T12 /// OR2T33 /// OR2T8 (11738714_s_at) / Fold change /veh OR2T12 /// OR2T33 /// OR2T8 (11738714_s_at) / RFU VCAN (11748164_a_at) / Fold change /veh VCAN (11748164_a_at) / RFU JSRP1 (11732532_at) / Fold change /veh JSRP1 (11732532_at) / RFU KRTAP10-11 (11738290_x_at) / Fold change /veh KRTAP10-11 (11738290_x_at) / RFU MYO3A (11730013_a_at) / Fold change /veh MYO3A (11730013_a_at) / RFU EBF3 (11725865_a_at) / Fold change /veh EBF3 (11725865_a_at) / RFU CAMK2N1 (11719241_x_at) / Fold change /veh CAMK2N1 (11719241_x_at) / RFU C5orf56 (11738088_a_at) / Fold change /veh C5orf56 (11738088_a_at) / RFU OLFML3 (11715873_a_at) / Fold change /veh OLFML3 (11715873_a_at) / RFU LOC100653217 /// NTM (11731650_a_at) / Fold change /veh LOC100653217 /// NTM (11731650_a_at) / RFU MAPK11 (11762145_a_at) / Fold change /veh MAPK11 (11762145_a_at) / RFU FIZ1 (11724087_x_at) / Fold change /veh FIZ1 (11724087_x_at) / RFU OASL (11726364_x_at) / Fold change /veh OASL (11726364_x_at) / RFU SOX15 (11748057_x_at) / Fold change /veh SOX15 (11748057_x_at) / RFU CD79A (11719716_a_at) / Fold change /veh CD79A (11719716_a_at) / RFU HIST1H1D (11736915_at) / Fold change /veh HIST1H1D (11736915_at) / RFU CASKIN2 (11723855_a_at) / Fold change /veh CASKIN2 (11723855_a_at) / RFU LOC730098 (11760151_x_at) / Fold change /veh LOC730098 (11760151_x_at) / RFU OR4N2 (11742367_at) / Fold change /veh OR4N2 (11742367_at) / RFU PRRT2 (11749266_a_at) / Fold change /veh PRRT2 (11749266_a_at) / RFU SNX32 (11753110_a_at) / Fold change /veh SNX32 (11753110_a_at) / RFU CDHR5 (11726645_a_at) / Fold change /veh CDHR5 (11726645_a_at) / RFU RCAN1 (11760418_a_at) / Fold change /veh RCAN1 (11760418_a_at) / RFU FAM167A (11723789_a_at) / Fold change /veh FAM167A (11723789_a_at) / RFU FAM26E (11764081_at) / Fold change /veh FAM26E (11764081_at) / RFU ISYNA1 (11749810_s_at) / Fold change /veh ISYNA1 (11749810_s_at) / RFU ACY1 (11761880_at) / Fold change /veh ACY1 (11761880_at) / RFU 11764098_at / Fold change /veh 11764098_at / RFU SAMD14 (11745864_x_at) / Fold change /veh SAMD14 (11745864_x_at) / RFU NPB (11741838_a_at) / Fold change /veh NPB (11741838_a_at) / RFU TMPRSS6 (11731388_a_at) / Fold change /veh TMPRSS6 (11731388_a_at) / RFU KRTAP10-2 (11738614_at) / Fold change /veh KRTAP10-2 (11738614_at) / RFU ARHGAP8 /// PRR5-ARHGAP8 (11727945_x_at) / Fold change /veh ARHGAP8 /// PRR5-ARHGAP8 (11727945_x_at) / RFU KRTAP5-7 /// NADSYN1 (11734609_at) / Fold change /veh KRTAP5-7 /// NADSYN1 (11734609_at) / RFU RASL12 (11751679_a_at) / Fold change /veh RASL12 (11751679_a_at) / RFU CDKN2B (11736163_a_at) / Fold change /veh CDKN2B (11736163_a_at) / RFU PRF1 (11729649_at) / Fold change /veh PRF1 (11729649_at) / RFU, ZNF638 /// ZNF638-IT1 / Fold change vs veh, ZNF638 /// ZNF638-IT1 / RFU, PANK3 / Fold change vs veh, PANK3 / RFU, SH3YL1 / Fold change vs veh, SH3YL1 / RFU, ZEB2 / Fold change vs veh, ZEB2 / RFU, NRIP1 / Fold change vs veh, NRIP1 / RFU, PTTG1IP / Fold change vs veh, PTTG1IP / RFU, CAPN2 / Fold change vs veh, CAPN2 / RFU, MED14 / Fold change vs veh, MED14 / RFU, SNORA58 / Fold change vs veh, SNORA58 / RFU, C1orf63 / Fold change vs veh, C1orf63 / RFU, LRRFIP1 / Fold change vs veh, LRRFIP1 / RFU, NDUFAF7 / Fold change vs veh, NDUFAF7 / RFU, SLC12A2 / Fold change vs veh, SLC12A2 / RFU, IBTK / Fold change vs veh, IBTK / RFU, ESF1 / Fold change vs veh, ESF1 / Fold change vs veh, TMEM50B / RFU, TAOK1 / Fold change vs veh, TAOK1 / RFU, ACBD3 / Fold change vs veh, ACBD3 / RFU, TMA16 / Fold change vs veh, TMA16 / RFU, RWDD3 / Fold change vs veh, RWDD3 / RFU, BCAT1 / Fold change vs veh, BCAT1 / RFU, EDEM3 / Fold change vs veh, EDEM3 / RFU, TMEM33 / Fold change vs veh, TMEM33 / RFU, WDR75 / Fold change vs veh, WDR75 / RFU, AHCTF1 / Fold change vs veh, AHCTF1 / RFU, TFRC / Fold change vs veh, TFRC / RFU, ZDHHC17 / Fold change vs veh, ZDHHC17 / RFU, NOM1 / Fold change vs veh, NOM1 / RFU, ARL8B / Fold change vs veh, ARL8B / RFU, ZBTB11 / Fold change vs veh, ZBTB11 / RFU, TAMM41 / Fold change vs veh, TAMM41 / RFU, KIAA1704 /// LOC100996395 / Fold change vs veh, KIAA1704 /// LOC100996395 / RFU, ING1 / Fold change vs veh, ING1 / RFU, TRMT61B / Fold change vs veh, TRMT61B / RFU, FUBP3 / Fold change vs veh, FUBP3 / RFU, TP53 / Fold change vs veh, TP53 / RFU, TNKS2 / Fold change vs veh, TNKS2 / RFU, ZFP14 / Fold change vs veh, ZFP14 / RFU, ACTR2 / Fold change vs veh, ACTR2 / RFU, PPP3R1 / Fold change vs veh, PPP3R1 / RFU, PIK3R1 / Fold change vs veh, PIK3R1 / RFU, HNRNPA1 / Fold change vs veh, HNRNPA1 / RFU, RNF170 / Fold change vs veh, RNF170 / RFU, ZNF28 / Fold change vs veh, ZNF28 / RFU, RNGTT / Fold change vs veh, RNGTT / RFU, OGT / Fold change vs veh, OGT / RFU, BRD1 / Fold change vs veh, BRD1 / RFU, MARS / Fold change vs veh, MARS / RFU, ZNF655 / Fold change vs veh, ZNF655 / RFU, FAHD1 / Fold change vs veh, FAHD1 / RFU, BDP1 / Fold change vs veh, BDP1 / RFU, LRRCC1 / Fold change vs veh, LRRCC1 / RFU, ARID1A / Fold change vs veh, ARID1A / RFU, ZNF146 / Fold change vs veh, ZNF146 / RFU, ZNF330 / Fold change vs veh, ZNF330 / RFU, GPN3 / Fold change vs veh, GPN3 / RFU, C9orf123 / Fold change vs veh, C9orf123 / RFU, N4BP2L2 / Fold change vs veh, N4BP2L2 / RFU, ARFIP1 / Fold change vs veh, ARFIP1 / RFU, FAM179B / Fold change vs veh, FAM179B / RFU, BCL10 / Fold change vs veh, BCL10 / RFU, UHRF1BP1L / Fold change vs veh, UHRF1BP1L / RFU, BET1 / Fold change vs veh, BET1 / RFU, CNOT2 / Fold change vs veh, CNOT2 / RFU, ZNF268 / Fold change vs veh, ZNF268 / Fold change vs veh, ZNF507 / RFU, DGCR2 / Fold change vs veh, DGCR2 / RFU, WDSUB1 / Fold change vs veh, WDSUB1 / Fold change vs veh, HSP90B1 /// MIR3652 / RFU, ADSS / Fold change vs veh, ADSS / RFU, GK / Fold change vs veh, GK / RFU, ZNF148 / Fold change vs veh, ZNF148 / RFU, TAF9 / Fold change vs veh, TAF9 / RFU, SLC1A5 / Fold change vs veh, SLC1A5 / RFU, SLMO2 / Fold change vs veh, SLMO2 / RFU, ABCC4 / Fold change vs veh, ABCC4 / RFU, LOC101060439 /// RAP1B / Fold change vs veh, LOC101060439 /// RAP1B / RFU, RFX7 / Fold change vs veh, RFX7 / RFU, GTPBP10 / Fold change vs veh, GTPBP10 / RFU, CNEP1R1 / Fold change vs veh, CNEP1R1 / RFU, BIVM-ERCC5 /// ERCC5 / Fold change vs veh, BIVM-ERCC5 /// ERCC5 / RFU, ILF3 / Fold change vs veh, ILF3 / RFU 11762660_at / Fold change /veh 11762660_at / RFU VCAN (11757783_s_at) / Fold change /veh VCAN (11757783_s_at) / RFU DDX43 (11728927_at) / Fold change /veh DDX43 (11728927_at) / RFU KRT8 (11758188_x_at) / Fold change /veh KRT8 (11758188_x_at) / RFU NKD1 (11759106_at) / Fold change /veh NKD1 (11759106_at) / RFU SRD5A1 (11742802_a_at) / Fold change /veh SRD5A1 (11742802_a_at) / RFU TPSAB1 /// TPSB2 (11721975_s_at) / Fold change /veh TPSAB1 /// TPSB2 (11721975_s_at) / RFU GSTM3 (11746129_a_at) / Fold change /veh GSTM3 (11746129_a_at) / RFU IL23R (11737362_x_at) / Fold change /veh IL23R (11737362_x_at) / RFU TMEM51 (11727254_a_at) / Fold change /veh TMEM51 (11727254_a_at) / RFU PIWIL2 (11732686_x_at) / Fold change /veh PIWIL2 (11732686_x_at) / RFU ORM1 (11744905_x_at) / Fold change /veh ORM1 (11744905_x_at) / RFU CCDC152 (11743942_at) / Fold change /veh CCDC152 (11743942_at) / RFU ECM1 (11717891_a_at) / Fold change /veh ECM1 (11717891_a_at) / RFU IL23R (11748794_a_at) / Fold change /veh IL23R (11748794_a_at) / RFU TNFAIP8L3 (11732012_x_at) / Fold change /veh TNFAIP8L3 (11732012_x_at) / RFU MBOAT4 (11741988_at) / Fold change /veh MBOAT4 (11741988_at) / RFU 11764193_at / Fold change /veh 11764193_at / RFU TMEM53 (11763286_at) / Fold change /veh TMEM53 (11763286_at) / RFU MAGEB2 (11727129_at) / Fold change /veh MAGEB2 (11727129_at) / RFU TMEM200A (11744735_a_at) / Fold change /veh TMEM200A (11744735_a_at) / RFU CCDC152 (11751479_a_at) / Fold change /veh CCDC152 (11751479_a_at) / RFU FAM211A (11726209_a_at) / Fold change /veh FAM211A (11726209_a_at) / RFU RGS16 (11746705_a_at) / Fold change /veh RGS16 (11746705_a_at) / RFU VCAN (11755009_s_at) / Fold change /veh VCAN (11755009_s_at) / RFU RHOB (11743442_s_at) / Fold change /veh RHOB (11743442_s_at) / RFU RGS16 (11720943_a_at) / Fold change /veh RGS16 (11720943_a_at) / RFU RGS16 (11720944_at) / Fold change /veh RGS16 (11720944_at) / RFU, VPS4B / Fold change vs veh, VPS4B / RFU, CREB1 / Fold change vs veh, CREB1 / RFU, DNAJC13 / Fold change vs veh, DNAJC13 / RFU, GNAQ / Fold change vs veh, GNAQ / RFU, CDK5R1 / Fold change vs veh, CDK5R1 / RFU, ZRANB3 / Fold change vs veh, ZRANB3 / RFU, CUL4A / Fold change vs veh, CUL4A / RFU, CCNY / Fold change vs veh, CCNY / RFU, UFL1 / Fold change vs veh, UFL1 / RFU, COG3 / Fold change vs veh, COG3 / RFU, DIAPH2 / Fold change vs veh, DIAPH2 / RFU, SKA2 / Fold change vs veh, SKA2 / RFU, AFF3 / Fold change vs veh, AFF3 / RFU, LMF1 / Fold change vs veh, LMF1 / RFU, IPO11 / Fold change vs veh, IPO11 / RFU, DFFB / Fold change vs veh, DFFB / RFU, FOXP1 / Fold change vs veh, FOXP1 / RFU, CARD8 / Fold change vs veh, CARD8 / RFU, STRN3 / Fold change vs veh, STRN3 / RFU, ADK / Fold change vs veh, ADK / RFU, RASSF2 / Fold change vs veh, RASSF2 / RFU, WIPF1 / Fold change vs veh, WIPF1 / RFU, LARP1B / Fold change vs veh, LARP1B / RFU, RASA1 / Fold change vs veh, RASA1 / RFU, RB1 / Fold change vs veh, RB1 / RFU, PPFIA1 / Fold change vs veh, PPFIA1 / RFU, MAT2A / Fold change vs veh, MAT2A / RFU, CCT5 / Fold change vs veh, CCT5 / RFU, WDR92 / Fold change vs veh, WDR92 / RFU, CUX1 / Fold change vs veh, CUX1 / RFU, TTC7A / Fold change vs veh, TTC7A / RFU, TMEM135 / Fold change vs veh, TMEM135 / RFU, DEPTOR / Fold change vs veh, DEPTOR / RFU, CPM / Fold change vs veh, CPM / RFU, DNAJB6 / Fold change vs veh, DNAJB6 / RFU, CACNA2D3 / Fold change vs veh, CACNA2D3 / RFU, DTX4 / Fold change vs veh, DTX4 / RFU, TFCP2 / Fold change vs veh, TFCP2 / RFU, GMCL1 /// GMCL1P1 / Fold change vs veh, GMCL1 /// GMCL1P1 / RFU, AEBP2 / Fold change vs veh, AEBP2 / RFU, SNHG1 /// SNORD22 /// SNORD25 /// SNORD26 /// SNORD27 /// SNORD28 /// SNORD29 /// SNORD31 / Fold change vs veh, SNHG1 /// SNORD22 /// SNORD25 /// SNORD26 /// SNORD27 /// SNORD28 /// SNORD29 /// SNORD31 / Fold change (Aza/veh), C12orf56 (ProbeSet 11735607_a_at) / Fold change (ACY-1035/veh), C12orf56 (ProbeSet 11735607_a_at) / Fold change (Aza/veh), FGFR1OP (ProbeSet 11751329_s_at) / Fold change (ACY-1035/veh), FGFR1OP (ProbeSet 11751329_s_at) / Fold change (Aza/veh), VPS36 (ProbeSet 11739960_a_at) / Fold change (ACY-1035/veh), VPS36 (ProbeSet 11739960_a_at) / RFU SYPL1 (11715823_x_at) / Fold change /veh SYPL1 (11715823_x_at) / RFU IGFBP7 (11715501_s_at) / Fold change /veh IGFBP7 (11715501_s_at) / RFU REEP3 (11722064_at) / Fold change /veh REEP3 (11722064_at) / RFU IGLL1 (11728026_x_at) / Fold change /veh IGLL1 (11728026_x_at): dose or concentration left out as unconfirmed
# Settings: ProbeSet 11721611_a_at; LIST D
smiles,measurement,value
Nc1ncn([C@@H]2O[C@H](CO)[C@@H](O)[C@H]2O)c(=O)n1 [azacitidine],"Fold change vs veh, IPO11",0.66
